Values of other authors in patent US12594435B2, “Interstitial photodynamic therapy” (Simphotek, Inc., priority 2020, dated 2026).
Where two headings read alike, the source gives them in different places.

How the values were obtained:
tumors in mice = conditions: for Threshold [^1O2]dose: superficial PDT
experimental tumours [1] = conditions: Mice, Shafirstein et. al., 2018
experimental tumours [2] = conditions: Rabbits, Shafirstein et. al., 2018
[3] = for β, k4/k2 / ξ photokinetic parameter / σ, k1/(k7[A]): Table 6, Zhu et. al. 2015, Ong et al 2018
Human prostate = conditions: Davidson et.al., 2009
[4] = Zhu et. al., 2015, labeled [^1O2]rx in the publication
[5] = surface PDT, Sheng et. al., 2019
[6] = I-PDT with light dose as dose metric
[7] = simulation parameter used in Dosie simulations, Examples 3 and 4
[8] = vascular PDT, Sheng et. al., 2020

## Photofrin
Tumors in mice; Qiu et. al., 2016
  Threshold [^1O2]dose: > 1.0 (Qiu et. al., 2016) mM
Tumors in mice; [4]
  Threshold [^1O2]dose: 0.56 ± 0.26 (Zhu et. al., 2015) mM
Tumors in mice; [5]
  Threshold Light Dose: Approx. 100 (Sheng et. al., 2019) J/cm^2
  Threshold PDT-dose: 439 (Sheng et. al., 2019) μM J/cm^2
Experimental tumours [1]; [6]
  Threshold Fluence Rate φT: 8.4 (Shafirstein et. al., 2018) mW/cm^2
Experimental tumours [1]; I-PDT
  Threshold Light Dose: ≥45 (Shafirstein et. al., 2018) J/cm^2
Experimental tumours [2]; [6]
  Threshold Fluence Rate φT: 16.5 (Shafirstein et. al., 2018) mW/cm^2
Experimental tumours [2]; I-PDT
  Threshold Light Dose: ≥45 (Shafirstein et. al., 2018) J/cm^2
[3]; 630 nm
  ε, PS extinction coefficient: Photofrin (630 nm): 0.0035 cm^−1μM^−1
[3]
  β, k4/k2: Photofrin: 11.9 μM
  ξ photokinetic parameter: Photofrin: 3.7 × 10^−3 cm^2mW^−1s^−1
  σ, k1/(k7[A]): Photofrin: 7.6 × 10^−5 μM^−1
[3]; [7]
  β: 11.9
  δ, low concentration correction: 33
  ξ: 3.7E-03
  σ: 7.6E-05

## Oc1cccc(-c2c3nc(c(-c4cccc(O)c4)c4ccc([nH]4)c(-c4cccc(O)c4)c4nc(c(-c5cccc(O)c5)c5ccc2[nH]5)CC4)C=C3)c1 [mTHPC]
[3]; 650 nm
  ε, PS extinction coefficient: mTHPC (650 nm): 0.048 cm^−1μM^−1
[3]
  β, k4/k2: mTHPC: 8.7 μM
  ξ photokinetic parameter: mTHPC: 30.0 × 10^−3 cm^2mW^−1s^−1
  σ, k1/(k7[A]): mTHPC: 2.97 × 10^−5 μM^−1

## 2-(1-Hexyloxyethyl)-2-devinyl pyropheophorbide [HPPH]
Tumors in mice; Penjweini et. al., 2016
  Threshold [^1O2]dose: 0.98 ± 0.11 (Penjweini et. al., mM
Tumors in mice; surface PDT, Penjweini et. al., 2016
  Threshold PDT-dose: 52.62 ± 14.9 (Penjweini et. al., μM J/cm^2

## benzoporphyrin derivative monoacid ring A [BPD]
Tumors in mice; Kim et. al. 2017
  Threshold [^1O2]dose: 0.98 ± 012 (Kim et. al. 2017) mM
Tumors in mice; [4]
  Threshold [^1O2]dose: 0.72 ± 0.21 (Zhu et. al., 2015) mM
Tumors in mice; surface PDT, Kim et. al., 2017
  Threshold PDT-dose: 58 ± 12 (Kim et. al., 2017) μM J/cm^2
Tumors in mice; [8]
  Threshold Light Dose: Approx. 40 (vascular, Sheng et. J/cm^2
  Threshold PDT-dose: 7.5 (vascular, Sheng et. al., μM J/cm^2
[3]; 690 nm
  ε, PS extinction coefficient: BPD (690 nm): 0.0783 cm^−1μM^−1
[3]
  β, k4/k2: BPD: 11.9 μM
  ξ photokinetic parameter: BPD: 51.0 × 10^−3 cm^2mW^−1s^−1
  σ, k1/(k7[A]): BPD: 1.7 × 10^−5 μM^−1

## CC[C@H]1c2cc3[n-]c4c(c3C)C(=O)[C@H](C(=O)OC)c4c3nc(cc4[n-]c(cc(n2)[C@@H]1C)c(C(C)=O)c4C)[C@@H](C)[C@@H]3CCC(=O)O.[Pd+2] [Tookad]
Human prostate
  Threshold Light Dose: >23 (Davidson et.al., 2009) J/cm^2
[3]
  β, k4/k2: Tookad: 11.9 μM
  ξ photokinetic parameter: Tookad: 122 × 10^−3 cm^2mW^−1s^−1
  σ, k1/(k7[A]): Tookad: 2.6 × 10^−5 μM^−1
